The source of these data is patent US20250049791A1, “Synthesis of MEK7 Inhibitors and methods of Use Thereof” (Northwestern University, priority 2023, published 2025).

Molecules are shown by their SMILES. “Also recorded” adds a separate entry of the source.

The target of data set [1] is T1, full-length MAP2K7 N-terminal GST fusion protein (Homo sapiens, UniProt O14733).
T1 construct: purchased Carna Biosciences 07-147-10; host or cells: E. coli
T1 sequence (O14733 1-419): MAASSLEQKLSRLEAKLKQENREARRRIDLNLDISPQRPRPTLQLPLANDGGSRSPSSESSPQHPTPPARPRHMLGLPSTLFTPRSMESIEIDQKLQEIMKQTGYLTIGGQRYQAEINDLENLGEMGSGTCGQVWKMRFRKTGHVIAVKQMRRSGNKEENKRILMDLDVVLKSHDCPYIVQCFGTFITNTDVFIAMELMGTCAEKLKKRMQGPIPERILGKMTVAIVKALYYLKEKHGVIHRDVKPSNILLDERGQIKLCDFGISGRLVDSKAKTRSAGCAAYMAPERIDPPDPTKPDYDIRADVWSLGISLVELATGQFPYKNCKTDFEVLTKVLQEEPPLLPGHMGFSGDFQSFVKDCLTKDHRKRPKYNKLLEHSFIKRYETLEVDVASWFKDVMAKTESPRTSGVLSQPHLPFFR
As to the kind of experiment: Whole-protein LC/TOF-MS of covalent labeling. The data set is classed as binding. Conditions: 2 equiv inhibitor, 5° C., 12 hours. As for the experimental part:
The construct was full-length MAP2K7 (1-419 amino acids of accession number NP_660186.1), which was prepared by the manufacturer as an N-terminal GST-fusion protein using an E. coli expression system. The construct was then purified by glutathione sepharose chromatography and shipped in a storage buffer containing 50 mM Tris —HCl, 150 mM NaCl, 0.05 mM Brij-35, 1 mM DTT, and 10% glycerol at pH=7.5.
Each whole-protein MS experiment was run with a 10 uL injection of a sample containing 50 μg of protein diluted to a final volume of 100 μL. The construct aliquots were first diluted to the appropriate volume with an aqueous solution of 150 mM NaCl and 50 mM Tris —HCl. The diluted samples were loaded on a Pierce spin column (ThermoFisher Scientific catalog number: 87777) to remove Brij-35 and finally eluted with the appropriate volume of the same buffer. Finally, 1.3 uL of DMSO (vehicle) or a 1 mM DMSO solution of covalent inhibitor was added, and the resulting roughly 101 uL solutions were incubated at 5° C. for 12 hours. The incubates were injected (10 uL) on an Agilent 6201 MSLC-TOF (ESI) with a protein column. A 10 minute water:acetonitrile gradient was performed, eluting recombinant proteins of interest in roughly 5 minutes. Masses were deconvoluted using MassHunter BioConfirm (maximum entropy).

The next data set concerns the target T2, FLT3 (Homo sapiens, UniProt P36888).
T2 construct: purchased DiscoverX (Eurofins)
T2 sequence (P36888 27-993): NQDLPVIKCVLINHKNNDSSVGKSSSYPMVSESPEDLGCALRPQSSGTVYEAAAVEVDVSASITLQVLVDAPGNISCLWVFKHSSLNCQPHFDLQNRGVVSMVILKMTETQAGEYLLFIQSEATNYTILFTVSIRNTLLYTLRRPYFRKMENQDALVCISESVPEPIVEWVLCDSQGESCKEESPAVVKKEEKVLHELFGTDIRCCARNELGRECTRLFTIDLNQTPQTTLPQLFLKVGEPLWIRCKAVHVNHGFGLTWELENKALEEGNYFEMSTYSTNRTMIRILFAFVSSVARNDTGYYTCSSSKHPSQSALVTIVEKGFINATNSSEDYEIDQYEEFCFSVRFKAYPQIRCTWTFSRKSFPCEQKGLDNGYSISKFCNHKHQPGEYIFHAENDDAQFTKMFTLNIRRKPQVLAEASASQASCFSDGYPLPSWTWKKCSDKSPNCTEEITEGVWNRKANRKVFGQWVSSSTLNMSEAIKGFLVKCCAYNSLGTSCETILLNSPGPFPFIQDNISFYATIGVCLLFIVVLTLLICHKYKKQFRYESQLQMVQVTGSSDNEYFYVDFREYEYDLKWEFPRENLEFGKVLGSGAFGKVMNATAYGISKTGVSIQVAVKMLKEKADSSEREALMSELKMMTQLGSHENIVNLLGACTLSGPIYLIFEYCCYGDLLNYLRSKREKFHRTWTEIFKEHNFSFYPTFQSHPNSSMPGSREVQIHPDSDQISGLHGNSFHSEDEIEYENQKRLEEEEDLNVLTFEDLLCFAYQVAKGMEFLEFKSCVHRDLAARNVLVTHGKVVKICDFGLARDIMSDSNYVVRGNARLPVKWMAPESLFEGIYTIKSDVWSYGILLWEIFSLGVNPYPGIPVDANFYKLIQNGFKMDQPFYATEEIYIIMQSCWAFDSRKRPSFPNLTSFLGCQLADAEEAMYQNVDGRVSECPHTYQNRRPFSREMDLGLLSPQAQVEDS
As to the kind of experiment: ScanEDGE competition binding, FLT3. Conditions: ScanEDGE screen. The source says:
(§1) The ScanEDGE assay, completed by DiscoverX (Eurofins) is a proprietary active site-directed competition binding assay. Compounds that bind the kinase active site prevent kinase binding to the immobilized ligand, reducing the amount of kinase captured on the solid support. Hits are identified by measuring the amount of kinase captured in experimental vs, control samples by a qPCR method that detects an associated DNA label. According to data provided by Eurofins, a typical hit at 5-10% of control signal in a 1 μM assay as shown above is generally associated with a KD in the range of 100-1,000 nM. Readings with greater than 35% of control signal correspond to exceeding large dissociation constants.

A further data set deals with Jurkat and KOPTK1. As to the kind of experiment: Washout cytotoxicity experiment. Format: cell-based. Conditions: 18 hours with compound, washed, 30 hours. As for the experimental part: T-cell cell lines Jurkat and KOPTK1 were plated in triplicates (20×10^4 cells per 96-well plate) and cultured with different concentrations of DK-2403 compound for 18 hours. Cells were washed twice to remove DK-2403 and incubated for 30 hours. Cell viability was measured (48 hours) using CellTiter-Glo luminescent cell viability assay.

In the next data set the test system is MEK1/2. Description: ScanEDGE competition binding, MEK1/2. Conditions: ScanEDGE screen.
From the text: as §1

A further data set has as its target T3, MEK6 (Homo sapiens, UniProt P52564).
T3 sequence (P52564 1-334): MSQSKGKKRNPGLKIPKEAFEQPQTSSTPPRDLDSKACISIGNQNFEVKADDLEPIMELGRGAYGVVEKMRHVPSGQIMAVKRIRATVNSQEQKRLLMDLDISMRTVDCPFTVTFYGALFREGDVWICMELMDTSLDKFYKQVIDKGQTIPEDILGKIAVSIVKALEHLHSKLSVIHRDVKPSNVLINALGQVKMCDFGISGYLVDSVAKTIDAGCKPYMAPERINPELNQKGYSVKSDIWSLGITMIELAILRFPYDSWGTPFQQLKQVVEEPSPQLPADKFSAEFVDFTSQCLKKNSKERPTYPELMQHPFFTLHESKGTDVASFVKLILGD
Description: Additional selectivity assay, MEK6 (FIG. 9). Format: binding.

With `O=C(CCl)Nc1cccc(Oc2cc(NCc3ccccc3)ncn2)c1` [Compound 25, N-(3-((6-(benzylamino)pyrimidin-4-yl)oxy)phenyl)-2-chloroacetamide], in data set [1], the “covalent labeling of MAP2K7, whole-protein MS” value is recorded as “covalent engagement; also recorded: Complete labeling”. Besides, at FLT3, the “engagement of FLT3” value is “does not engage”. Moreover, the cytotoxicity after washout entry with Jurkat and KOPTK1 is recorded as “resistant to washout”. The “activity on MEK1/2” value in the data set on MEK1/2 is recorded as “no appreciable activity”. Moreover, the “activity/binding at MEK6” value on MEK6 was “inactive; also recorded: lack of binding”.
